Test [1] deals with Rat white adipocytes. In words: Stimulation of differentiation of the adipocytes (Oil Red O). Type of test: cell-based. Particulars: 100 nM test compound, 5 days, Oil Red O ABS550, control = 100%, blank = 0%, Table 7; for activity at 0.1 µM: Rattus norvegicus, Adipocyte, 120 h, read-out: Rate of Differentiation (%). The method in brief: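 Rat white adipocytes, 5,000 cells/well, cultured 5 days in differentiation-inducing medium with test compound at final 100 nM (0.1% DMSO). Cells fixed, stained with Oil Red O, dye extracted in DMSO and read at 550 nm; differentiation rate expressed relative to vehicle control (100%) and cell-free blank (0%).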

Test [2] has as its system leptin production. In words: Enhancing activity for leptin production in adipocytes (ELISA). Type of test: cell-based, rat. Particulars: leptin concentration as % of control group; for Facilitating activity to produce leptin: 24 hr. The method in brief:
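Collagenase-dispersed epididymal adipocytes from 6-week-old male Wistar Imamichi rats, cultured in DMEM/F-12 (1:1) with test compound at final 1 µM, 100 nM, 10 nM or 1 nM (0.1% DMSO) for 24 h at 37 °C, 5% CO2. Leptin in filtrate measured by ELISA; activity = treated/DMSO-control leptin × 100 (%).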

Where [3] appears, read: Rattus norvegicus, Adipocyte, 24 h, 1 μM, read-out: Facilitating activity to produce leptin.
Where [4] appears, read: Rattus norvegicus, Adipocyte, 24 h, 100 nm, read-out: Facilitating activity to produce leptin.

From patent publication US20030134859A1 (SANKYO COMPANY, LIMITED, priority 2000, published 2003) come the findings set out here.

As for `O=C(Nc1ccc(-c2ccccc2)cc1)c1cc([N+](=O)[O-])ccc1Cl` [Example 2, N-(4-Phenylphenyl)-(2-chloro-5-nitrophenyl)carboxamide], the activity at 0.1 µM in test [1] was 127%. Also, the activity at 1 µM in test [2] (setting [3]) is 113%.

On to `O=C(Nc1ccccc1-c1ccccc1)c1cc([N+](=O)[O-])ccc1Cl` [Example 7, N-(2-Phenylphenyl)-(2-chloro-5-nitrophenyl)carboxamide], for which the activity at 0.1 µM is 120% in test [1] and 114% in test [2] (setting [4]).

As for `CC(C)(C)c1cc(NC(=O)c2cc([N+](=O)[O-])ccc2Cl)cc(C(C)(C)C)c1O` [Example 29, N-(3,5-Di-t-butyl-4-hydroxyphenyl)-(2-chloro-5-nitrophenyl)carboxamide], the activity at 0.1 µM in test [1] turned out to be 111%. Further, the activity at 1 µM in test [2] (setting [3]) turned out to be 142%.

Consider `O=C(Nc1nc(-c2ccccc2)cs1)c1cc([N+](=O)[O-])ccc1Cl` [Example 35, N-(4-Phenylthiazol-2-yl)-(2-chloro-5-nitrophenyl)carboxamide], for which the activity at 0.1 µM in test [1] was found to be 122%.

With `O=C(Nc1nc(-c2cccnc2)cs1)c1cc([N+](=O)[O-])ccc1Cl` [Example 37, N-[4-(3-Pyridyl)thiazol-2-yl)-(2-chloro-5-nitrophenyl)carboxamide], the activity at 0.1 µM in test [1] was found to be 114%.

For `O=C(Nc1nc(-c2ccccn2)cs1)c1cc([N+](=O)[O-])ccc1Cl` [Example 38, N-[4-(2-Pyridyl)thiazol-2-yl)-(2-chloro-5-nitrophenyl)carboxamide], in test [1], the activity at 0.1 µM came to 137%.

`Cc1cccc(-c2csc(NC(=O)c3cc([N+](=O)[O-])ccc3Cl)n2)c1` [Example 40, N-[4-(3-Methylphenyl)thiazol-2-yl)-(2-chloro-5-nitrophenyl)carboxamide]: the activity at 0.1 µM in test [1] is 122%.

Consider `O=C(Nc1nc(-c2cccc3ccccc23)cs1)c1cc([N+](=O)[O-])ccc1Cl` [Example 41, N-[4-(1-Naphthyl)thiazol-2-yl]-(2-chloro-5-nitrophenyl)carboxamide], for which, in test [1], the activity at 0.1 µM amounted to 118%.

On to `Cc1ccc(-c2nc(NC(=O)c3cc([N+](=O)[O-])ccc3Cl)sc2C)cc1Cl` [Example 46, N-[4-(3-Chloro-4-methylphenyl)-5-methylthiazol-2-yl]-(2-chloro-5-nitrophenyl)carboxamide], for which, in test [1], the activity at 0.1 µM turned out to be 124%.

Take `Cc1nc(NC(=O)c2cc([N+](=O)[O-])ccc2Cl)sc1C` [Example 47]: the activity at 0.1 µM in test [1] is 141%.

For the compound `Cc1cccc(NC(=O)c2cc([N+](=O)[O-])ccc2Cl)n1` [Example 51, N-(6-Methylpyridin-2-yl)-(2-chloro-5-nitrophenyl)carboxamide], the activity at 0.1 µM in test [1] amounted to 129%.

With `Cc1ccc(NC(=O)c2cc([N+](=O)[O-])ccc2Cl)nc1` [Example 52, N-(5-Methylpyridin-2-yl)-(2-chloro-5-nitrophenyl)carboxamide], in test [1], the activity at 0.1 µM was 133%. Further, the activity at 0.001 µM in test [2] (Rattus norvegicus, Adipocyte, 24 h, 1 nm, read-out: Facilitating activity to produce leptin) turned out to be 111%.

For the compound `O=C(Nc1ccc2c3c(cccc13)CC2)c1cc([N+](=O)[O-])ccc1Cl` [Example 54, N-(Acenaphthen-5-yl)-(2-chloro-5-nitrophenyl)carboxamide], in test [1], the activity at 0.1 µM was found to be 118%. The activity at 1 µM in test [2] (setting [3]) is 113%.

`Cc1ccnc(NC(=O)c2cc([N+](=O)[O-])ccc2Cl)n1` [Example 65, N-(4-Methylpyrimidin-2-yl)-(2-chloro-5-nitrophenyl)carboxamide]: in test [1], the activity at 0.1 µM turned out to be 112%.

With `COC(=O)c1sccc1NC(=O)c1cc([N+](=O)[O-])ccc1Cl` [Example 66, N-(2-Methoxycarbonylthiophen-3-yl)-(2-chloro-5-nitrophenyl)carboxamide], the activity at 0.1 µM in test [1] worked out at 113%.

`Cn1c(NC(=O)c2cc([N+](=O)[O-])ccc2Cl)nc2ccccc21` [Example 82, N-(1-Methylbenzimidazol-2-yl)-(2-chloro-5-nitrophenyl)carboxamide]: the activity at 0.1 µM in test [1] came out at 114%; in test [2] (setting [4]), 108%. Further, in test [2] (setting [3]), the activity at 1 µM was determined as 111%.

Regarding `O=C(Nc1nncs1)c1cc([N+](=O)[O-])ccc1Cl` [Example 85, N-(1,3,4-Thiadiazol-2-yl)-(2-chloro-5-nitrophenyl)carboxamide], in test [1], the activity at 0.1 µM was 125%.

As to `O=C(Nc1ccc(S(=O)(=O)Nc2nccs2)cc1)c1cc([N+](=O)[O-])ccc1Cl` [Example 96, N-[4-(Thiazol-2-yl)aminosulfonyl]phenyl-(2-chloro-5-nitrophenyl)carboxamide], the activity at 0.1 µM in test [1] was determined as 123%.

Regarding `Cc1cc(NS(=O)(=O)c2ccc(NC(=O)c3cc([N+](=O)[O-])ccc3Cl)cc2)no1` [Example 99], the “Rate of Differentiation (%)” value in test [1] came to 119.0%. In addition, the “Facilitating activity to produce leptin” value in test [2] (1 μM) was found to be 113.9%.

Take `O=C(Nc1ccc(S(=O)(=O)Nc2ccc(Cl)nn2)cc1)c1cc([N+](=O)[O-])ccc1Cl` [Example 102, N-[4-[(6-Chloropyridazin-3-yl)aminosulfonyl]phenyl]-(2-chloro-5-nitrophenyl)carboxamide]: the activity at 0.1 µM in test [1] was determined as 114%.

For `N=C(N)NS(=O)(=O)c1ccc(NC(=O)c2cc([N+](=O)[O-])ccc2Cl)cc1` [Example 106, N-[4-(Amidinoaminosulfonyl)phenyl]-(2-chloro-5-nitrophenyl)carboxamide], in test [1], the activity at 0.1 µM amounted to 113%.

Turning to `Cc1ccc(S(=O)(=O)Nc2ccc(NC(=O)c3cc([N+](=O)[O-])ccc3Cl)cc2)cc1` [Example 116, N-[4-(4-Toluenesulfonylamino)phenyl]-(2-chloro-5-nitrophenyl)carboxamide], the activity at 0.1 µM in test [1] is 124%.

For the compound `CC(=O)Nc1ccc(NC(=O)c2cc([N+](=O)[O-])ccc2Cl)cc1` [Example 117, N-(4-Acetylaminophenyl)-(2-chloro-5-nitrophenyl)carboxamide], in test [1], the activity at 0.1 µM was found to be 122%.

As for `O=C(Nc1ccc(NC(=O)c2cc([N+](=O)[O-])ccc2Cl)cc1)c1ccccc1` [Example 119, N-(4-Benzoylaminophenyl)-(2-chloro-5-nitrophenyl)carboxamide], the activity at 0.1 µM in test [1] is 135%.

As to `O=C(Nc1ccc(NC(=O)c2cc([N+](=O)[O-])ccc2Cl)cc1)c1ccncc1` [Example 125, N-[4-(Pyridin-4-ylcarbonylamino)phenyl]-(2-chloro-5-nitrophenyl)carboxamide], the activity at 0.1 µM in test [1] is 132%.

As for `CCCCCCN(CCCCCC)c1ccc(NC(=O)c2cc([N+](=O)[O-])ccc2Cl)cc1` [Example 138, N-[4-(N,N-di-n-Hexylamino)phenyl]-(2-chloro-5-nitrophenyl)carboxamide], the activity at 0.1 µM in test [1] worked out at 126%. Besides, the activity at 1 µM in test [2] (setting [3]) was 111%.

Consider `CC(C)(C)c1cc(C(=O)Nc2ccc(NC(=O)c3cc([N+](=O)[O-])ccc3Cl)cc2)cc(C(C)(C)C)c1O` [Example 157, N-[4-[(3,5-di-tert-Butyl-4-hydroxybenzoyl)amino]phenyl]-(2-chloro-5-nitrophenyl)carboxamide], for which the activity at 0.1 µM in test [1] was 116%.

On to `CN(C)c1cccc(NC(=O)c2cc([N+](=O)[O-])ccc2Cl)c1` [Example 176, N-(3-Dimethylamino)phenyl-(2-chloro-5-nitrophenyl)carboxamide], for which the figures for the activity at 0.1 µM in test [1] and in test [2] (setting [4]) were 118% and 110%, respectively.

As for `O=C(Nc1ccc(S(=O)(=O)Nc2ccc(N3CCOCC3)cc2)cc1)c1cc([N+](=O)[O-])ccc1Cl` [Example 179, N-[4-[4-(Morpholin-4-yl)phenyl]aminosulfonyl]phenyl-(2-chloro-5-nitrophenyl)carboxamide], in test [1], the activity at 0.1 µM came out at 128%.

`CCCNc1ccc(NC(=O)c2cc([N+](=O)[O-])ccc2Cl)cc1` [Example 181, N-[4-(N-Propylamino)phenyl]-(2-chloro-5-nitrophenyl)carboxamide]: in test [1], the activity at 0.1 µM came to 128%.

`CCCN(CC)c1ccc(NC(=O)c2cc([N+](=O)[O-])ccc2Cl)cc1` [Example 189, N-[4-(N-Ethyl-N-propylamino)phenyl]-(2-chloro-5-nitrophenyl)carboxamide]: the activity at 0.1 µM in test [1] amounted to 133%.

As for “N-[4-(Pyrrolidinylsulfonyl)phenyl]-(2-chloro-5-nitrophenyl)carboxamide [Example 152]”, the “Rate of Differentiation (%)” value in test [1] was 112.7%. Further, in test [2] (100 nm), the “Facilitating activity to produce leptin” value is recorded as 116.4%.
